For orientation: IC50 means the midpoint of a concentration-inhibition curve. As a reminder, the EC50 is the concentration giving half of the maximal effect. A high value points to lower potency in that assay.

Like-named read-outs stand apart in the source and are kept apart here.

Common to all, as to type: cell-based
In assay [1] the test system is Wnt signalling (TOPFlash reporter, STF cells). As to the kind of experiment: Wnt STF TOPFlash reporter dose response (Wnt3A-stimulated). The procedure: Wnt STF reporter cells (HEK 293 cells stably transfected with TOPFlash reporter) and STF3A reporter cells (STF cells with constitutive secretion of Wnt3A) were kind gifts from David Virshup (Duke-NUS Graduate Medical School, Singapore). HCT116, DLD-1, and SW480 cell lines were obtained from ATCC. The Hippo pathway TEAD reporter (cat. #60618) and Myc signalling pathway reporter (cat. #60520) cells lines were purchased from BPS Bioscience, Inc.
The Wnt STF reporter cells were seeded as 20,000 cells in 100 μL culture medium per well in 96-well plates (Corning cat. #3903, Falcon cat. #353072). The next day, 5-fold dilutions of the compounds in DMSO were added to the cells at a final concentration of 1% DMSO. The cells were also stimulated with 500 ng/mL recombinant human Wnt3A (RnD systems, cat. #5036-WN-010). After 24 hr incubation, the viability of the cells was determined with cell counting kit-8 (CCK-8, Dojindo cat. #CK04) cell viability reagent according to the manufacturer's protocol while the TOPFlash reporter activity was determined with Steady-Glo luciferase reagent.
The average signal from DMSO treated wells was calculated for each plate, and the signal from each treatment well was normalized against the average DMSO signal from the respective plate. The normalized values were plotted against the concentrations tested using GraphPad Prism 5, and the EC50 values were determined through either three- or four-parameter nonlinear regression.

In a further assay the test system is CRC2413. Kind of assay: Viability of primary patient-derived colorectal cancer cell line.
For the next assay, the system named is CRC1489. The description is as above.
The test system of the next assay is CRC1707. The description is as above.
The test system of the next assay is CRC2367. Described as above.
A further assay addresses T1, β-cat-TCF4 interaction (Homo sapiens, UniProt P35222, DEL45-45).
T1 construct: endogenous in cells; host or cells: HCT116
As to the kind of experiment: Co-immunoprecipitation of β-cat and TCF4 in HCT116 cells. Particulars: 18 hr. The procedure:
HCT116 cells were treated for 18 hr with compounds at the indicated concentrations. Cells were lysed on ice in lysis buffer containing 20 mM HEPES, pH 7.5, 137 mM NaCl, 1.5 mM MgCl2, 1 mM EGTA, 1 mM dithiothreitol (DTT), 1% Triton X-100, 10% glycerol, cOmplete protease inhibitor cocktail (Roche cat. #11697498001), and 1 mM Na3VO4. Each sample of cleared protein lysate was incubated overnight at 4° C. with 4 μg anti-β-cat antibody (Sigma cat. #C7207) followed by 1 hr incubation with a 50 μL slurry of Dynabeads Protein G (Invitrogen cat. #10004D) at 4° C. The beads were then washed three times with lysis buffer at 4° C., and the bound protein was eluted by heating the beads with 30 μL (per sample) of SDS sample buffer at 95° C. for 7 min. protein was resolved by SDS-PAGE and blotted onto PVDF membrane (Millipore cat. #IPVH00010). Primary antibodies were incubated overnight at 4° C. and the blots were detected with either IRDye 800CW goat anti-rabbit antibody (LI-COR cat. #926-32211) or IRDye 680RD goat anti-mouse antibody (LI-COR cat. #926-68070) at 1:5000 dilution. Signals were visualized with the LI-COR Odyssey CLx imaging system and bands were quantified using LI-COR Image Studio data analysis software. […]

For a further assay, the system named is CRC1671. Kind of assay: Viability of primary patient-derived colorectal cancer cell line.
The next assay concerns HCT116 cells. As to the kind of experiment: Colony formation assay. Particulars: HCT116, 30 μM, 7 days. The procedure: FIG. 4 depicts the inhibit growth by hit compounds and their effects on stemness of Wnt driven cells. (FIG. 4A) Growth curves of HCT116 cells treated daily with compounds at 10 μM. One-way repeated measures ANOVA with Dunnett's multiple comparison test was carried out to determine the significance between compound treatment and DMSO control. *P<0.05, ***P<0.001. (FIG. 4B) Effects of hit compounds on colony formation of HCT116 cells. HCT116 cells were grown in 6-well plates and treated with either DMSO or the compounds at 30 μM for 7 days, following which the cells were fixed and stained with crystal violet. The number of colonies obtained were counted. Two-tailed Student's t-test was carried out between compound treatment and DMSO control. ***P<0.001. (FIG. 4C) Effects of hit compounds on spheroid formation of HCT116 cells. HCT116 cells were grown in ultra-low attachment 96-well plates and treated with either DMSO or the compounds at 30 µM for 14 days, following which the number of spheroids ≥200 μm in size was determined. Two-tailed Student's t-test was carried out between compound treatment and DMSO control. ***P<0.001, **P<0.01. Scale bar represents 1 mm. (FIG. 4D) NSG mice xenografted with HCT116 cells were treated with vehicle control (n=6) or 50 mg/kg GB1874 (n=6) via i.p. every other day for 2 weeks. Tumor volumes were monitored over time. […]

For assay [2], the system named is Wnt target genes in HCT116 CRC cells. Kind of assay: Expression of beta-catenin (CTNNB1) and Wnt target genes in HCT116 CRC cells. The procedure: The effects of the GB1874 analogues were tested on the expression of Wnt target genes in HCT116 CRC cells.
In the next assay the test system is CRC1837. Kind of assay: Viability of primary patient-derived colorectal cancer cell line. Particulars: CRC1837, Liver Met.
For a further assay, the system named is CRC1846. The description is as above.
The test system of another assay is CRC1177. The assay is described as above.

T1 sequence (P35222 with tags, fused parts or gaps DEL45-45): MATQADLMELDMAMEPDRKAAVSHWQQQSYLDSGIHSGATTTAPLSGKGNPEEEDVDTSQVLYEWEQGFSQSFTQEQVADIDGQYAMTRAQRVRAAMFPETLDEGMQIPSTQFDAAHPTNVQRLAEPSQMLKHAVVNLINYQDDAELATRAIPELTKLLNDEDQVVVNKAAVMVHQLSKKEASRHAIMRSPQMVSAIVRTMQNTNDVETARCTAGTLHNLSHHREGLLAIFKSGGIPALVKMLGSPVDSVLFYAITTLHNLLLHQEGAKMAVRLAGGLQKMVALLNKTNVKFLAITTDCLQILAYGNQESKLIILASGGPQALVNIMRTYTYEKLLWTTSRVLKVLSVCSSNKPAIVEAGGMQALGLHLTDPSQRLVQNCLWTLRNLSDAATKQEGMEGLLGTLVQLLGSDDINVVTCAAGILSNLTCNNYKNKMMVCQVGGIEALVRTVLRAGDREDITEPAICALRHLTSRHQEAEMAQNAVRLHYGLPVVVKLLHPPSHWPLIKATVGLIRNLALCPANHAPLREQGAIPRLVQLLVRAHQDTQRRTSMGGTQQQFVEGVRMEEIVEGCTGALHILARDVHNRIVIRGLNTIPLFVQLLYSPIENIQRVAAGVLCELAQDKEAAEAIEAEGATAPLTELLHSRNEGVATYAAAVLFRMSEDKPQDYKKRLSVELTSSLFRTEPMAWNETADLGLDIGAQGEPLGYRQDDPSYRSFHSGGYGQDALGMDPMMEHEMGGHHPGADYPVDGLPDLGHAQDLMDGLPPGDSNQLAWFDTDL

Take `CCc1ccc(OCc2nnc(SC3CCCC3=O)n2C(C)c2ccccc2)cc1` (stereo not drawn) [GB1874]: the IC50 in assay [1] (Table 1, STF reporter cells, 500 ng/mL Wnt3A, 24 hr, read-out: IC50 Wnt (STF)) turned out to be 11 µM; in [1] (Table 3, STF reporter cell line, read-out: STF Inhibition IC50) it was 6.8 µM; in [1] (unit M, read-out: STF IC50), 6.8 µM. In addition, the EC50 with CRC2413 is 16 µM; with CRC1489, 41 µM; in the assay with CRC1707, 19 µM; in the assay on CRC2367, 20 µM; in the assay on CRC1671, 30 µM; in the assay with CRC1837, 21 µM. For the same compound, the concentration giving a half-maximal response (EC50) worked out at 17 µM in the assay on CRC1846 and 19 µM in the assay on CRC1177. The “β-cat-TCF4 interaction (co-IP)” value at β-cat-TCF4 interaction is given as “reduce the β-cat-TCF4 interaction to the same extent as iCRT3”. Also, the colony forming efficiency entry in the assay on HCT116 cells is on record as “markedly reduce survival of the cancer stem-like cells”. Besides, in assay [2], the “beta-catenin (CTNNB1) gene expression” value was “lesser effect”. Besides, the “expression of Wnt target genes AXIN2, BIRC5, BMP4, CCND1” value in [2] is “potently inhibit Wnt target genes”.

The values above are taken from patent publication US12661338B2, “Heterocyclic compounds as modulators of beta-catenin / TCF4 interaction” (AGENCY FOR SCIENCE, TECHNOLOGY AND RESEARCH, priority 2019, dated 2026).
